Data on five molecules can be found in ChEMBL document CHEMBL1201862, “PubChem BioAssay data set” (2004).

The structures appear in SMILES notation. Active and inactive are the calls of the source. Bounds are passed on as bounds.

For experiment [1], the target named is T1, Corticotropin-releasing factor receptor 2/Corticotropin-releasing factor-binding protein (Homo sapiens, UniProt P24387+Q13324).
T1 sequence (Q13324 whole entry): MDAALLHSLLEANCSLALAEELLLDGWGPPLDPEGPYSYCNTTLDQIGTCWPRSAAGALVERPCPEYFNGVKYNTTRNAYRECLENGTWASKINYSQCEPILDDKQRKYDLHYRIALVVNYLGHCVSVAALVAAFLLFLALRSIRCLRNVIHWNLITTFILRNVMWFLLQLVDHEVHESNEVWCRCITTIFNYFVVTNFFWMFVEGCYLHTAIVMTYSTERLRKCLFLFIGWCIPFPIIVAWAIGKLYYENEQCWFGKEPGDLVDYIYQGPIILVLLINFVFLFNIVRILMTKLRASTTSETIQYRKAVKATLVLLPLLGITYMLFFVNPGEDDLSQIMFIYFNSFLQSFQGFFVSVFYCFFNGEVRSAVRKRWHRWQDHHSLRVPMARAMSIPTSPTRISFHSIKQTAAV
T1 sequence (P24387 whole entry): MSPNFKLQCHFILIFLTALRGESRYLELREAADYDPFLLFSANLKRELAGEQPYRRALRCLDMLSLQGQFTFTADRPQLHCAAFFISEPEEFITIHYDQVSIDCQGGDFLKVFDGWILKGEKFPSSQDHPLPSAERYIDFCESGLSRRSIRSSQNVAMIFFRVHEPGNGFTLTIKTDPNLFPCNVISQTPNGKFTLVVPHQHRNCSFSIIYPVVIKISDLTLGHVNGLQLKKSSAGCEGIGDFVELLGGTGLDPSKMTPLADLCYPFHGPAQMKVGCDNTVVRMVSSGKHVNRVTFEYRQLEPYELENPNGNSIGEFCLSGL
The experiment in a line: Dose Response confirmation of uHTS hits for small molecule antagonists of the CRF-binding protein and CRF-R2 receptor complex. As to conditions: read-out: IC50_Mean. Type of experiment: functional.

Experiment [2] in a line: CRF-BP/CRF-R2 complex antagonists, dose response, cell-based, uHTS hits, 384-well (AID 651639). In kind it is functional, Homo sapiens. As to conditions: read-out: IC50_Mean.
Experiment [3] concerns the target T1, Corticotropin-releasing factor receptor 2/Corticotropin-releasing factor-binding protein. Nature of the experiment: activators of CRF receptor 2 with binding protein – uHTS hits, confirmation (AID 602473). Type of experiment: functional. The following applies: read-out: EC50_Mean.
Experiment [4] concerns the target T2, High affinity choline transporter 1 (Homo sapiens, UniProt Q9GZV3).
T2 sequence (Q9GZV3 whole entry): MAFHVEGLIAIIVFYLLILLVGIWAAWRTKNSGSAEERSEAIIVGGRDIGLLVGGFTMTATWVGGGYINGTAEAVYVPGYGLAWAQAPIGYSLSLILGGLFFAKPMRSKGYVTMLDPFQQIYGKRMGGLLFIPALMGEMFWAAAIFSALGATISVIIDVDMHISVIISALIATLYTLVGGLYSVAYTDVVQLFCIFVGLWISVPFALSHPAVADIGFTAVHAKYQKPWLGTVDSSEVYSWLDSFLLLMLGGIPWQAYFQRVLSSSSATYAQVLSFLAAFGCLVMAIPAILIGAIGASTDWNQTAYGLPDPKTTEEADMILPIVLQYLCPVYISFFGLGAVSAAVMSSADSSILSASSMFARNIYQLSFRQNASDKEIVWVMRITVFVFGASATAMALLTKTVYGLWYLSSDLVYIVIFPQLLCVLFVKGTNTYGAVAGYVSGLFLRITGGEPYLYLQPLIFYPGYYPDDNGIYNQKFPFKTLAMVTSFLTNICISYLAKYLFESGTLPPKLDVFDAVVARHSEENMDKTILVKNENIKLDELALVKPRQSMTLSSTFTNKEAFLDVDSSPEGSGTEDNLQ
The experiment in a line: CHT inhibitors, dose response, cell-based, 5-point CRC, membrane potential dye (AID 504840). In kind it is functional.

The target in experiment [5] is T3, Zinc finger protein mex-5 (Caenorhabditis elegans, UniProt Q9XUB2).
T3 sequence (Q9XUB2 whole entry): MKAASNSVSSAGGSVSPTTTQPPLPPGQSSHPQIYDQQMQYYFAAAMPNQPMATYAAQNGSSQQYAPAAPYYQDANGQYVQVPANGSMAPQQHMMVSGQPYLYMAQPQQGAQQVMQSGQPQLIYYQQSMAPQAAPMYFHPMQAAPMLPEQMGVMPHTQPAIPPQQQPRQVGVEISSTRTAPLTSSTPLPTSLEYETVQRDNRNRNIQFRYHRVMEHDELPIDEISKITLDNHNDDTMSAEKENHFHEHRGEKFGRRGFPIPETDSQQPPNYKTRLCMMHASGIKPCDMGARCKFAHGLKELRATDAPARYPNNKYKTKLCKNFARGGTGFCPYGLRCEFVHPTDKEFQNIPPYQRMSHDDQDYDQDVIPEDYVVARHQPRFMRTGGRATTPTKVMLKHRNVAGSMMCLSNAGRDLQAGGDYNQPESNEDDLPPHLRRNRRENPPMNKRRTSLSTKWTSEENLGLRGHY
Nature of the experiment: MEX-5/TCR-2 RNA interaction inhibitors, dose response, biochemical, C. elegans, fluorescence polarization (AID 1960). For orientation: Polarisation of emitted light reports the rotation of a fluorescent probe.

Experiment [6] concerns the target T4, RNA-binding protein pos-1 (Caenorhabditis elegans, UniProt G5EF15).
T4 sequence (G5EF15 whole entry): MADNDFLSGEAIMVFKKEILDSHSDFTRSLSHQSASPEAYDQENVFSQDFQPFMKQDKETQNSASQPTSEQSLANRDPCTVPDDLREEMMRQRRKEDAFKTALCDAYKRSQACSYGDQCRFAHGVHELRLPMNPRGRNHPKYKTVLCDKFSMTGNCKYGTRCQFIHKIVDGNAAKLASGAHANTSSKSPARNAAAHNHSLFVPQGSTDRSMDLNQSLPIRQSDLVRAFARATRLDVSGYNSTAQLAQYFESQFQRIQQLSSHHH
Nature of the experiment: inhibitors of POS-1/mex-3 RNA binding, dose response, biochemical, fluorescence polarization (AID 1964).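 Note: purified POS-1 fused to maltose binding protein made in E. coli; potency of compounds blocking POS-1 binding to fluorescent RNA.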

The target of experiment [7] is T2, High affinity choline transporter 1. The experiment in a line: CHT inhibitors, dose response, cell-based, 10-point CRC, membrane potential dye (AID 588401).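 Note: membrane potential dye fluorescence of choline-evoked depolarization via CHT.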 In kind it is functional.
For a further experiment, the target named is T5, Protein skinhead-1 (Caenorhabditis elegans, UniProt P34707).
T5 sequence (P34707 whole entry): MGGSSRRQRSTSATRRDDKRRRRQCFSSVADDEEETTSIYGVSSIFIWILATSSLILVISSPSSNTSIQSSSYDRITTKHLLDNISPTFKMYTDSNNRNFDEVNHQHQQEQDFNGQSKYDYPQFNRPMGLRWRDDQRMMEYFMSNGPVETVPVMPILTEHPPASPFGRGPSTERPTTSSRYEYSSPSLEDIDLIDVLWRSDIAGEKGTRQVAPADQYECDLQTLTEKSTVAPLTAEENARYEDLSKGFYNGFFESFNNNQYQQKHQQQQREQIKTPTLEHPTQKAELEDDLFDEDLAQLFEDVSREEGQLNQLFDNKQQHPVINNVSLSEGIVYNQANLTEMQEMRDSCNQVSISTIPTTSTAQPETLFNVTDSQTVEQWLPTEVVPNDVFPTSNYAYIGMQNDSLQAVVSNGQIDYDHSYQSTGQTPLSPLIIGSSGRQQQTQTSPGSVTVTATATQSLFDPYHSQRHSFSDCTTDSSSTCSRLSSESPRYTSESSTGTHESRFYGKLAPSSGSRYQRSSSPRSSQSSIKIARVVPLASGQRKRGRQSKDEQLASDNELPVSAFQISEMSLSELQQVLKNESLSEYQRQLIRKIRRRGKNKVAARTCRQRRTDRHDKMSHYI
In kind it is functional.

The next experiment addresses T6, Caspase-3 (Homo sapiens, UniProt P42574).
T6 sequence (P42574 whole entry): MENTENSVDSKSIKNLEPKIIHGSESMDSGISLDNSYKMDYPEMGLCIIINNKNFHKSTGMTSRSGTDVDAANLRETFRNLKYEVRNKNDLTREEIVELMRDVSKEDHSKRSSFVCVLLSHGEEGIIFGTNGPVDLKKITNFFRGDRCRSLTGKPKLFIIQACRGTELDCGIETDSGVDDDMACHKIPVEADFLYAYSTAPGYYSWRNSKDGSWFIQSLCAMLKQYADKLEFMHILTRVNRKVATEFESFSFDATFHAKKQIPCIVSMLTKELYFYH
Type of experiment: functional.

Experiment [8] deals with T7, Sentrin-specific protease 7 (Homo sapiens, UniProt Q9BQF6).
T7 sequence (Q9BQF6 whole entry): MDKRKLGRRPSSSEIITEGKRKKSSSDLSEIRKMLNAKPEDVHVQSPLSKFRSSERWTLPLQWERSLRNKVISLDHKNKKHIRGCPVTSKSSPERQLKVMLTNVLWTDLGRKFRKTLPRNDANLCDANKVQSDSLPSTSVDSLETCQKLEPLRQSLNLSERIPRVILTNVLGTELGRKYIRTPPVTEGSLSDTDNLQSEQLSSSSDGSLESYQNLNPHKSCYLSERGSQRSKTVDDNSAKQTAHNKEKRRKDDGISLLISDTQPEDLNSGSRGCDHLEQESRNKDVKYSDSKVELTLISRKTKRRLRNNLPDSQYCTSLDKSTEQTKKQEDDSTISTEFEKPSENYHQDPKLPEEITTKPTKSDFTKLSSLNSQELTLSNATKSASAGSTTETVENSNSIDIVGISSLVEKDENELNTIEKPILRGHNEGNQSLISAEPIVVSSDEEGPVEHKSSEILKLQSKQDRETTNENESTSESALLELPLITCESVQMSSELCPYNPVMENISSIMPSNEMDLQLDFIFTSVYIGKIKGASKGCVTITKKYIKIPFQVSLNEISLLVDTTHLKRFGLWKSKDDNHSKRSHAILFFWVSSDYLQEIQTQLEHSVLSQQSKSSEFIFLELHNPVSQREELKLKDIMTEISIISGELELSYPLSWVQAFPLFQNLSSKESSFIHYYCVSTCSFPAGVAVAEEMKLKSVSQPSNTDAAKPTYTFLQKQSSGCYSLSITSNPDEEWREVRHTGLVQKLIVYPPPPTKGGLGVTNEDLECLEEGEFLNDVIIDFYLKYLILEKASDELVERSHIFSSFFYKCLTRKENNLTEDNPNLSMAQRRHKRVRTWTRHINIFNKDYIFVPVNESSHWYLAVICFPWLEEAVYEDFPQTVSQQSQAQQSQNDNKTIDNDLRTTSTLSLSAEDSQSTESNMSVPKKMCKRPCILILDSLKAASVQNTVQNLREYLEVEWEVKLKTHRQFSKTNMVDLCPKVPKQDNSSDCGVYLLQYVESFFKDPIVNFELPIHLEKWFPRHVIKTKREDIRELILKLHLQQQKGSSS
Type of experiment: functional.

Experiment [9] has as its target T8, Sentrin-specific protease 6 (Homo sapiens, UniProt Q9GZR1).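 Note: Luminescence-based dose-response confirmatory assay of SENP6 inhibition, following up an ultra-high-throughput screen.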
T8 sequence (Q9GZR1 whole entry): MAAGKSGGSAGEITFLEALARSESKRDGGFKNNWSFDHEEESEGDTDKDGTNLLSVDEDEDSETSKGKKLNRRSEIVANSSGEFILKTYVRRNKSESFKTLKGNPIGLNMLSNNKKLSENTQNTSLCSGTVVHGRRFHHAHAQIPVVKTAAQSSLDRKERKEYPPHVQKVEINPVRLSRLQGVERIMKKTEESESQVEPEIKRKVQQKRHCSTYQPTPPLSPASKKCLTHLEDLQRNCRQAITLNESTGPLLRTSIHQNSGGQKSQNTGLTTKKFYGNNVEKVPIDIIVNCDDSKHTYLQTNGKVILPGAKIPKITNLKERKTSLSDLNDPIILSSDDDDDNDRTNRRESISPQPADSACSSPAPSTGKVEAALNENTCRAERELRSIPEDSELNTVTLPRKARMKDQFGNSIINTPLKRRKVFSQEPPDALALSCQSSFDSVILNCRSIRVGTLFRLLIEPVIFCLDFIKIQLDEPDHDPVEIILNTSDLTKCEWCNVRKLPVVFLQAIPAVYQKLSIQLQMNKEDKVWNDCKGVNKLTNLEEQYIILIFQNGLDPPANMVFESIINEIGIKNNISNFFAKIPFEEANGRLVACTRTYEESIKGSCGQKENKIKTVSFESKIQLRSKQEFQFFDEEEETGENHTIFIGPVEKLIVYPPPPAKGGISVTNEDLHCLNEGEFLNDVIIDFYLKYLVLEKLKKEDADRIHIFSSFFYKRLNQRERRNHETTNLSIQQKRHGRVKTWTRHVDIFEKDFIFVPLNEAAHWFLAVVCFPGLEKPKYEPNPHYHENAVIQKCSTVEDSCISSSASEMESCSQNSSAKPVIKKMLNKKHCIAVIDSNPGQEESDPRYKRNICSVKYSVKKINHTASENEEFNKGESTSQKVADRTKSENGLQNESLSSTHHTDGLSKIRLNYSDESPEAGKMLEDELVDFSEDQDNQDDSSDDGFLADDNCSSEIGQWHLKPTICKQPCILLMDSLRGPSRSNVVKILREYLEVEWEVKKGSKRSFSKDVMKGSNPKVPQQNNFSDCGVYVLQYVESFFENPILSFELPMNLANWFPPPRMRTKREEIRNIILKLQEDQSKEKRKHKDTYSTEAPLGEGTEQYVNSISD
Type of experiment: functional.

In experiment [10] the target is T9, Sentrin-specific protease 8 (Homo sapiens, UniProt Q96LD8).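 Note: luminescence read-out of SENP8 inhibition, dose-response confirmation following an ultra-high-throughput screen.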
T9 sequence (Q96LD8 whole entry): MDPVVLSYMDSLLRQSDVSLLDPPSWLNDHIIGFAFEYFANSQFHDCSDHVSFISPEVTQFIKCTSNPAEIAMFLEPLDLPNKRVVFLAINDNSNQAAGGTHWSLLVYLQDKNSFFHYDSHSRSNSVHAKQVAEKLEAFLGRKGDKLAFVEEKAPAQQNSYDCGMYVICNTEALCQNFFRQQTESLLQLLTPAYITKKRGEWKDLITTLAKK
Type of experiment: functional.

For `Cc1ccc(NC(=O)COC(=O)CCc2c[nH]c3ccccc23)c(C)c1`, the values for the IC50 in experiment [1] and in [2] were 4.32 µM (active) and 8.75 µM (active), respectively. The EC50 in experiment [3] was > 53 µM (inactive).
Turning to `Cc1n[nH]c(C)c1Sc1ccccc1/N=C/c1cc(Cl)cc([N+](=O)[O-])c1O`, the IC50 was 8.88 µM (active) in experiment [4] and 6.23 µM (active) in experiment [7]. Further, the EC50 was 7.57 µM (inconclusive) in [5] and > 300 µM (inconclusive) in [6].
As for `CCC(C)c1ccc(NC(S)=NC(C)C2CCCO2)cc1` (stereo unspecified), the IC50 in experiment [4] is 5.01 µM (active); in experiment [7], 4.09 µM (active).
Taken in the same sequence, the figures for `O=C(C[n+]1cccc(Br)c1)c1ccc(-c2ccccc2)cc1` were 2.83 µM (active) and 1 µM (active).
`Clc1ccc(-c2nnc(-c3ccccc3Cl)o2)cc1`: the IC50 at Protein skinhead-1 is > 100 µM (inactive); at Caspase-3, 3.19 µM (active); in experiment [8], 2.65 µM (active); in [9], 3.19 µM (active); in experiment [10] it was 8.03 µM (active).
